# Results from patent US20070122451A1, “Biogically non-degradable peptides, angiostensin converting enzyme inhibitor, drug and functional food” (Calpis Co., Ltd., priority 2003, published 2007).
# Peptide text beside a SMILES is read from it.
# Biological target: T1, ACE derived from bovine lung (Bos taurus, UniProt P12820)
# T1 construct: ACE derived from bovine lung; host or cells: bovine lung tissue
# T1 sequence (P12820 29-1306): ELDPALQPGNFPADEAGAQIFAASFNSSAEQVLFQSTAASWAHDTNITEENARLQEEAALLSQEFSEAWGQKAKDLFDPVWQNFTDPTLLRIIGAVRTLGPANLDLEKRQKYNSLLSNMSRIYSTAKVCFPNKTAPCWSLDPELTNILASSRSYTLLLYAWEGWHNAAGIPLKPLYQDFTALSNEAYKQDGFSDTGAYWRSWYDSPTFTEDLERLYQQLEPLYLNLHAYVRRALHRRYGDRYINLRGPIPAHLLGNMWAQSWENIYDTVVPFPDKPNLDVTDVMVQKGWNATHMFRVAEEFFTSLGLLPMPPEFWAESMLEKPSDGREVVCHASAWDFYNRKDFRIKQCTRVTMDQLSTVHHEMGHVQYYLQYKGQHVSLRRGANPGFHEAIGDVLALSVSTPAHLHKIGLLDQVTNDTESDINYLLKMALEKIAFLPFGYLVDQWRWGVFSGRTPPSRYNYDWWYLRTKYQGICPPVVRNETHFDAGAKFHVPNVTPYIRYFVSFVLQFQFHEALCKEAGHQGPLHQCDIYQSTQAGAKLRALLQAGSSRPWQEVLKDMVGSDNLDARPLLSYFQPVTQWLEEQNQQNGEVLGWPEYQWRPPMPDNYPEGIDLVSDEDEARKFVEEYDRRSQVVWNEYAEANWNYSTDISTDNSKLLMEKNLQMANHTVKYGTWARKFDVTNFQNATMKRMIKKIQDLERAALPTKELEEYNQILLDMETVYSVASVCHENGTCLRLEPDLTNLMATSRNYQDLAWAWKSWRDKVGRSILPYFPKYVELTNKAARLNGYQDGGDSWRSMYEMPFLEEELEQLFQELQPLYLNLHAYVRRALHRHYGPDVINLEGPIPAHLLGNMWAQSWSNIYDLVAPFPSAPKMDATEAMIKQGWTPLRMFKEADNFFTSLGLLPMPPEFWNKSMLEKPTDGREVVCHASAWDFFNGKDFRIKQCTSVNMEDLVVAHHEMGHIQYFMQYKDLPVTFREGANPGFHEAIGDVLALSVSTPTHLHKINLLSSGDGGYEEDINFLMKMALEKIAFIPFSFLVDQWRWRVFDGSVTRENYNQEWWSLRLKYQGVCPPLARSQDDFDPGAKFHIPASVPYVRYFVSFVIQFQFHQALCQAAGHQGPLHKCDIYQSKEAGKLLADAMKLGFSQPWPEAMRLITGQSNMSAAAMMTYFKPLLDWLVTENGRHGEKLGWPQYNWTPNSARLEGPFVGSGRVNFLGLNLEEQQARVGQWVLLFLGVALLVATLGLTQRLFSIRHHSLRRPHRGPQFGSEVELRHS
# Experiment: Evaluation of ACE inhibitory activity (hippuryl-histidyl-leucine substrate, absorbance at 228 nm)
# Format: biochemical
# Settings: peptide concentration at which ACE inhibitory effect was 50%; 37° C., 30 minutes, pH 8.3 borate buffer
# Method: Solutions of each of these peptides at various concentrations were prepared, and measured for the ACE inhibitory activity in accordance with the method discussed below. The peptide concentration (μM) at which the ACE inhibitory effect was 50% was taken as IC50 value.
# <Evaluation of ACE Inhibitory Activity>
# ACE derived from bovine lung (manufactured by WAKO PURE CHEMICAL […], LTD.) was dissolved in a 0.1M borate buffer at pH 8.3 in an amount of 0.1 U, to obtain an ACE solution. […] Subsequently, the reaction was terminated by adding 250 μl of 1N hydrochloric acid (manufactured by WAKO PURE CHEMICAL […], LTD.). 1.7 ml of ethyl acetate (manufactured by WAKO PURE CHEMICAL […], LTD.) was then added, and stirred. 1.4 ml of the ethyl acetate layer was taken, placed in another tube, and evaporated at 120° C. for about 60 minutes to obtain a dried product. The dried product was dissolved in 1 ml of distilled water, and the absorbance at 228 nm of hippuric acid extracted with ethyl acetate was measured. As controls, absorbance was measured of a solution without the diluted solution and a solution without the diluted solution and the ACE solution. From the obtained absorbance, ACE inhibitory activity was calculated in accordance with the following formula. ACE inhibitory activity (%)=[(A−B)/A]×100 • A: (Absorbance of solution without diluted solution but with ACE solution)—(Absorbance of solution without diluted solution and ACE solution)
# B: (Absorbance of solution with diluted solution and ACE solution)—(Absorbance of solution with diluted solution but without ACE solution)
row,SMILES,IC50 [µM]
1,NC(N)=NCCC[C@H](N)C(=O)N1CCC[C@H]1C(=O)O [Arg-Pro] (H-Arg-Pro-OH),275
2,NC(=O)CC[C@H](N)C(=O)N1CCC[C@H]1C(=O)O [Gln-Pro] (H-Gln-Pro-OH),65.8
3,N[C@@H](CCC(=O)O)C(=O)N1CCC[C@H]1C(=O)O [Glu-Pro] (H-Glu-Pro-OH; N-terminus and C-terminus assumed),175
4,CC[C@H](C)[C@H](N)C(=O)N1CCC[C@H]1C(=O)O [Ile-Pro] (H-Ile-Pro-OH; N-terminus and C-terminus assumed),444
5,CSCC[C@H](N)C(=O)N1CCC[C@H]1C(=O)O [Met-Pro] (H-Met-Pro-OH; N-terminus and C-terminus assumed),135
